In article PMC11899342, “Novel Triazeneindole Antibiotics: Synthesis and Hit-to-Lead Optimization” (International Journal of Molecular Sciences, 2025):

Assays:
[1] = Stability in artificial gastric juice; type: in vitro ADME; details: pH 1.2, pepsin, 37 °C, read-out: t1/2 in artificial gastric juice
Procedure: During ADME studies, the concentration of the compounds was analyzed using ultra-performance liquid chromatography (UPLC) coupled with tandem mass spectrometry (MS/MS) in the multiple reaction monitoring (MRM) mode. A quantitative analysis was performed using the internal standard (IS) calibration method, with tolbutamide as the IS.
The analyses were carried out on a system composed of an Agilent 1290 Infinity UPLC system (Agilent Technologies, USA) connected by ESI interface to a tandem quadrupole mass spectrometer QTRAP 6500 (AB Sciex Corp, Framingham, MA, USA). The separation was conducted on an YMC Triart C18 50 × 2 mm, 1.9 μm column, which was kept at 35 °C. The samples were cooled to 8 °C in an autosampler, and aliquots of 1 µL were delivered onto the column. Elution was performed using gradients of A (0.1% formic acid in water) and B (0.1% formic acid in acetonitrile), at the flow rate 0.35 mL/min. […] The declustering potential was 31 V for BX and 93 V for IS, resepectively; the collision energy was attuned to 17 eV; the collision cell exit potential was 10 V for BX and 8 V for IS MRM, respectively; the analyses were recorded for 305 → 234 (BX) and 271 → 172 (tolbutamide). […]

[2] = Single-dose acute toxicity, intragastric administration; type: in vivo, rat; details: both sexes, Wistar, rat, in vivo, po; rats, intragastric, single dose; read-out: maximum tolerated dose
Procedure: Before administration, the BX-SI043 substance was resuspended in a 1% starch solution. The animals in the treatment groups received suspensions intragastrically in doses of 2000 mg/kg (administered in two equal doses, with a 30–40 min interval), 1000 mg/kg, 600 mg/kg, and 300 mg/kg (administered in single doses).
The animals were monitored daily for any abnormalities. On the 2nd, 7th, and 13th days after administration, the animals were clinically evaluated and weighed, and the consumption of feed and water were measured. On the 14th day, the behavior of the animals was evaluated. On the 15th day, the animals were euthanized, and the lungs (with trachea), heart, thymus, liver, kidneys, spleen, stomach, small intestine, colon, brain, adrenal glands, and testes/ovaries were fixed in 10% neutral formalin for histological evaluation.

In the case of `CCOC(=O)c1[nH]c2cc(F)ccc2c1/N=N/N1CCCC1` [BX-SI043, Ethyl (E)-6-fluoro-3-(pyrrolidin-1-yldiazenyl)-1H-indole-2-carboxylate], the half-life at 1 µM [1] is reported as less than 10 min and the MTD at 14 days [2] is reported as 600 mg/kg.
